Values of other authors, collected in US20240207289A1 (priority 2022, published 2024).

Target: Cannabinoid-2 (CB2R) receptor (Homo sapiens, UniProt P34972)
Sequence (P34972 whole entry): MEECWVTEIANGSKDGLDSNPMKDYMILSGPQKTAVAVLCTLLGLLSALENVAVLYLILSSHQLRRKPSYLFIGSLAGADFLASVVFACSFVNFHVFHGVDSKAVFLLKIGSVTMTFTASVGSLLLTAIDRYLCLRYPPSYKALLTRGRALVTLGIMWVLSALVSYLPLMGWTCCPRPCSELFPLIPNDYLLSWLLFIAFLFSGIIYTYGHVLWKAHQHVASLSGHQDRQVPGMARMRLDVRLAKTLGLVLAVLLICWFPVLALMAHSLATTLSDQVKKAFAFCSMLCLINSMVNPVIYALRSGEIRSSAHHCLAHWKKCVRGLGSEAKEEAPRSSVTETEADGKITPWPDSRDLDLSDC

CCCCCc1cc(O)c2c(c1)OC(C)(C)[C@@H]1CCC(C)=C[C@@H]21 [THC, delta-9-tetrahydrocannabinol]
activity at Cannabinoid-2 receptor: weak partial agonist activity
